Laboratory results published in ChEMBL document CHEMBL1201862, “PubChem BioAssay data set” (2004).
Calls of active or inactive are those of the source.

Experiments:
Format in all cases: functional
[1] = biological target: Serine/threonine-protein kinase TAO1 (Homo sapiens, UniProt Q7L7X3)
[2] = biological target: Leukocyte tyrosine kinase receptor (Homo sapiens, UniProt P29376); experiment: Navigating the Kinome. Panel member name: LTK
[3] = biological target: Dual specificity tyrosine-phosphorylation-regulated kinase 1A (Homo sapiens, UniProt Q13627);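 further: measured against DYRK1A as one member of a broad kinome profiling panel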
[4] = biological target: Dual specificity mitogen-activated protein kinase kinase 1 (Homo sapiens, UniProt Q02750); experiment: Navigating the Kinome. Panel member name: MAP2K1
Chain of Dual specificity mitogen-activated protein kinase kinase 1 (Q02750 whole entry): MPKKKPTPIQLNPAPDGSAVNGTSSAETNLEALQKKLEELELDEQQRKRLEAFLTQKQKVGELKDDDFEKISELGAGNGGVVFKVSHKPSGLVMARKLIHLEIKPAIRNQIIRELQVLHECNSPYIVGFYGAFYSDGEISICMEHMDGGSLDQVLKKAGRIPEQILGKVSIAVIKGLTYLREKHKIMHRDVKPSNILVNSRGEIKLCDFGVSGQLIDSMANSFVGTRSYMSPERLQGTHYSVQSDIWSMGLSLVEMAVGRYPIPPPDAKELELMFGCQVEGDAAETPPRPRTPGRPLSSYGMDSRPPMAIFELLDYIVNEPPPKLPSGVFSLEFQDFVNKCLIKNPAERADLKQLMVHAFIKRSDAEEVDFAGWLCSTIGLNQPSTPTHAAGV

[5] = biological target: Mitogen-activated protein kinase kinase kinase kinase 2 (Homo sapiens, UniProt Q12851);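 further: measured as one member of a kinome-wide kinase panel, with MAP4K2 as the panel entry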
[6] = biological target: Receptor-type tyrosine-protein kinase FLT3 (Homo sapiens, UniProt P36888);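 further: FLT3 was tested as one member of a kinome-wide kinase panel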
[7] = biological target: Glycogen synthase kinase-3 alpha (Homo sapiens, UniProt P49840);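 further: GSK3A result taken from a broad kinome-wide kinase panel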
[8] = biological target: Cyclin-dependent kinase 7 (Homo sapiens, UniProt P50613);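 further: value comes from a kinome-wide kinase profiling panel in which CDK7 is one member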
Chain of Cyclin-dependent kinase 7 (P50613 whole entry): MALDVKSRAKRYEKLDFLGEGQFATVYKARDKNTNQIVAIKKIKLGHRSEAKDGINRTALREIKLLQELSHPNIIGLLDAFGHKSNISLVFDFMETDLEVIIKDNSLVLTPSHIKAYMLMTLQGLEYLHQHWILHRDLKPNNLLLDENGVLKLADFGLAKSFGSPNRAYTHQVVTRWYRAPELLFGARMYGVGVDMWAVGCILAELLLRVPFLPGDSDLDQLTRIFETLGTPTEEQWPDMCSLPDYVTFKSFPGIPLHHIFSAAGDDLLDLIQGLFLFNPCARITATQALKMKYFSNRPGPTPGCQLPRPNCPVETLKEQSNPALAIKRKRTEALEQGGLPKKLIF

[9] = biological target: Serine/threonine-protein kinase pim-1 (Homo sapiens, UniProt P11309)
[10] = biological target: Cyclin-dependent kinase 5 (Homo sapiens, UniProt Q00535);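 further: CDK5 measured as one member of a kinase profiling panel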
[11] = biological target: cAMP-dependent protein kinase catalytic subunit PRKX (Homo sapiens, UniProt P51817)
[12] = biological target: Glycogen synthase kinase-3 beta (Homo sapiens, UniProt P49841);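 further: value comes from a broad kinome profiling panel, with GSK3B as the panel member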
[13] = biological target: Macrophage-stimulating protein receptor (Homo sapiens, UniProt Q04912); experiment: Navigating the Kinome. Panel member name: MST1R
[14] = biological target: Dual specificity mitogen-activated protein kinase kinase 2 (Homo sapiens, UniProt P36507); experiment: Navigating the Kinome. Panel member name: MAP2K2
[15] = biological target: ALK tyrosine kinase receptor (Homo sapiens, UniProt Q9UM73);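 further: ALK tested as one member of a kinase panel screen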
Activated CDC42 kinase 1 = Activated CDC42 kinase 1 (Homo sapiens, UniProt Q07912); experiment: Navigating the Kinome. Panel member name: ACK1
[16] = biological target: Tyrosine-protein kinase Fyn (Homo sapiens, UniProt P06241)
[17] = biological target: Inhibitor of nuclear factor kappa-B kinase subunit epsilon (Homo sapiens, UniProt Q14164); experiment: Navigating the Kinome. Panel member name: IKBKE
[18] = biological target: Mitogen-activated protein kinase kinase kinase kinase 4 (Homo sapiens, UniProt O95819)
[19] = biological target: Mitogen-activated protein kinase 9 (Homo sapiens, UniProt P45984);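 further: value from a kinome panel profiling assay, MAPK9 panel entry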
[20] = biological target: T1, Serine/threonine-protein kinase D3 (Homo sapiens, UniProt O94806);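 further: determined within a kinase panel screen, with PRKCN as the panel member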
T1 sequence (O94806 whole entry): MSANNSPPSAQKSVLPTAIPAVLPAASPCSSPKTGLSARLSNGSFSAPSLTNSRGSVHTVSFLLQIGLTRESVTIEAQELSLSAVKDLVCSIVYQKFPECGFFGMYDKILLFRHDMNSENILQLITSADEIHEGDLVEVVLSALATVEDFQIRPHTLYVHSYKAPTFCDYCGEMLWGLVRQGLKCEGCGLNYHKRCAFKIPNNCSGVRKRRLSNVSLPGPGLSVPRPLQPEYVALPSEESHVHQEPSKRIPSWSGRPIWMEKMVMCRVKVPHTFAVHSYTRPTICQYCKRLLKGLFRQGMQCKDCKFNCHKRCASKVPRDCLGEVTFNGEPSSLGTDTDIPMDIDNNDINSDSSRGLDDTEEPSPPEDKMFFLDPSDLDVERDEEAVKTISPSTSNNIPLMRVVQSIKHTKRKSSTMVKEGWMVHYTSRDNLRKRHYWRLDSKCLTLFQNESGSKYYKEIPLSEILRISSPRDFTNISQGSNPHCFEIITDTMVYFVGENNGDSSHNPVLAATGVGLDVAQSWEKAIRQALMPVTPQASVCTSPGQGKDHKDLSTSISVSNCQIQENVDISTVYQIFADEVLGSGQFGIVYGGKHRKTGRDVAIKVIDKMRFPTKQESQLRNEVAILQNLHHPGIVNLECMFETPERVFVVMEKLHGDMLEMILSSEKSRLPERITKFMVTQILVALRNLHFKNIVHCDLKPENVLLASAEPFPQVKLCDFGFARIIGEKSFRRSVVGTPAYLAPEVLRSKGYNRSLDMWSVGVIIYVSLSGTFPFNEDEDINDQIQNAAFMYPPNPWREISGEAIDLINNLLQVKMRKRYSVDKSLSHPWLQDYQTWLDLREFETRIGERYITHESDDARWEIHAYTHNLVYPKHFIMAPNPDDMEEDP

[21] = biological target: Fibroblast growth factor receptor 1 (Homo sapiens, UniProt P11362)
[22] = biological target: Leucine-rich repeat serine/threonine-protein kinase 2 (Homo sapiens, UniProt Q5S007);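 further: value from a broad kinome-wide panel profiling study in which LRRK2 was one of the kinases tested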
[23] = biological target: cAMP-dependent protein kinase catalytic subunit alpha (Homo sapiens, UniProt P17612)
[24] = biological target: Dual specificity protein kinase CLK4 (Homo sapiens, UniProt Q9HAZ1)
Chain of Dual specificity protein kinase CLK4 (Q9HAZ1 whole entry): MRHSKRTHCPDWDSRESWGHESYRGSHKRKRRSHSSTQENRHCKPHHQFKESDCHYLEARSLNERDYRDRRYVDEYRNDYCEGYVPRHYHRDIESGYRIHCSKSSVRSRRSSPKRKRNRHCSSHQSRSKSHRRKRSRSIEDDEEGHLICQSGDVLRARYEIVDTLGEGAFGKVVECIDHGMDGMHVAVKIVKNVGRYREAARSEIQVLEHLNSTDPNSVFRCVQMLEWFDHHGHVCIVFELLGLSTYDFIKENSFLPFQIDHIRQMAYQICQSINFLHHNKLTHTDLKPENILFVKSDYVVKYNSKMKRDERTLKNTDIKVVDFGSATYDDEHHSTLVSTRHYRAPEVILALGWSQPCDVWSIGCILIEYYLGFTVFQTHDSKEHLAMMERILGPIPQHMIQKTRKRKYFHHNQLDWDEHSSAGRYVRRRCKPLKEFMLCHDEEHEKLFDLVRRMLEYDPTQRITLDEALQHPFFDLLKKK

[25] = biological target: Tyrosine-protein kinase receptor TYRO3 (Homo sapiens, UniProt Q06418);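 further: TYRO3 value obtained as one member of a kinome-wide profiling panel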
[26] = biological target: Cyclin-dependent kinase 8 (Homo sapiens, UniProt P49336); experiment: Navigating the Kinome. Panel member name: CDK8
Chain of Cyclin-dependent kinase 8 (P49336 whole entry): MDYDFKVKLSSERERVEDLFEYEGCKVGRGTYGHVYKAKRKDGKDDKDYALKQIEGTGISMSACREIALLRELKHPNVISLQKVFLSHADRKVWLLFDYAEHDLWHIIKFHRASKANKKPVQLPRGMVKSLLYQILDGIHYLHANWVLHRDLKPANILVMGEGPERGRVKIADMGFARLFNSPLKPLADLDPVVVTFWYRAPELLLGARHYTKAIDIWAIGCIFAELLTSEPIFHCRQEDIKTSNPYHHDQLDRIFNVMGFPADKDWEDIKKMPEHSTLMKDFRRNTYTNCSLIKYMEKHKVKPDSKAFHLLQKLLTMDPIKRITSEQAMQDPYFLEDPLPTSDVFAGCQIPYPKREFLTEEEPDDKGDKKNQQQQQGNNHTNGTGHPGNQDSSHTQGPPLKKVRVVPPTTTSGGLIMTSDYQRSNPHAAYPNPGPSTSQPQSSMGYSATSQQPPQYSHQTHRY

Aurora kinase A = Aurora kinase A (Homo sapiens, UniProt O14965);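 further: value from the Navigating the Kinome kinase panel profiling, panel entry STK6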
Chain of Aurora kinase A (O14965 whole entry): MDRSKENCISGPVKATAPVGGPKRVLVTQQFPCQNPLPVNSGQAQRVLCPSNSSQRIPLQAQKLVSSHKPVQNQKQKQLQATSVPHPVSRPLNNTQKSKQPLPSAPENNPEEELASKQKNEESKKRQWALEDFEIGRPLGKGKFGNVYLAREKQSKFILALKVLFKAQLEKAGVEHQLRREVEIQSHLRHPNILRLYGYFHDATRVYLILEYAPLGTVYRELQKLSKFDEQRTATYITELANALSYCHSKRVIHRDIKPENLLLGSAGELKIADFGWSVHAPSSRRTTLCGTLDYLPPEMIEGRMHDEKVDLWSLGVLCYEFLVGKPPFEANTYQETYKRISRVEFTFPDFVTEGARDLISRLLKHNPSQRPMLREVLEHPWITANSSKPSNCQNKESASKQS

[27] = biological target: Platelet-derived growth factor receptor alpha (Homo sapiens, UniProt P16234); experiment: Navigating the Kinome. Panel member name: PDGFRA
[28] = biological target: Macrophage colony-stimulating factor 1 receptor (Homo sapiens, UniProt P07333);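 further: value comes from the Navigating the Kinome screening panel, CSF1R member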
Chain of Macrophage colony-stimulating factor 1 receptor (P07333 whole entry): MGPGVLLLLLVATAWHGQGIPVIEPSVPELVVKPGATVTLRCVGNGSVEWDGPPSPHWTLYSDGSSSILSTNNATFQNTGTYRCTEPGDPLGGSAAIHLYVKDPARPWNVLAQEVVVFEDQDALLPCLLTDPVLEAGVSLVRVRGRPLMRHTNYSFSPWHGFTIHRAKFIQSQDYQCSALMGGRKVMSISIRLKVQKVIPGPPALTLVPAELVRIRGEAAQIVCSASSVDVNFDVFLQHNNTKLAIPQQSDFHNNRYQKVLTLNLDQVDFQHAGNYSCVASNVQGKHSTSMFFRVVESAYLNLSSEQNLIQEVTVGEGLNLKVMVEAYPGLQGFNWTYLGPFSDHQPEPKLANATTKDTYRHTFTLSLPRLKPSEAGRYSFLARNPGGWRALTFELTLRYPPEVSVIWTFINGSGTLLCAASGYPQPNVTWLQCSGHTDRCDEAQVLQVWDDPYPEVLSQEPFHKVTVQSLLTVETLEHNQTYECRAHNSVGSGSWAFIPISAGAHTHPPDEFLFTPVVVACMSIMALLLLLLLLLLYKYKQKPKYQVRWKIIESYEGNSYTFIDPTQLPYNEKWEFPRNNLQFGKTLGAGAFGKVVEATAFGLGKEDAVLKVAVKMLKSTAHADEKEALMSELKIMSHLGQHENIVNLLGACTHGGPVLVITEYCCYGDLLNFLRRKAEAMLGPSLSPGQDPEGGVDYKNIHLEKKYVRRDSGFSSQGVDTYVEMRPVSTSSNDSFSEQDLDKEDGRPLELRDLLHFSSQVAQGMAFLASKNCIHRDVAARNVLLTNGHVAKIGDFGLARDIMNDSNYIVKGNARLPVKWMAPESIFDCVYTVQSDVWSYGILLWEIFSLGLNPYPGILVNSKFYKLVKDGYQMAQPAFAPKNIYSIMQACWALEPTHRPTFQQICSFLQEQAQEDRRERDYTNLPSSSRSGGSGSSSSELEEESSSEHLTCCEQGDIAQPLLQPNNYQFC

[29] = biological target: Calcium/calmodulin-dependent protein kinase type II subunit alpha (Homo sapiens, UniProt Q9UQM7); experiment: Navigating the Kinome. Panel member name: CAMK2A
[30] = biological target: Tyrosine-protein kinase BTK (Homo sapiens, UniProt Q06187)
Chain of Tyrosine-protein kinase BTK (Q06187 whole entry): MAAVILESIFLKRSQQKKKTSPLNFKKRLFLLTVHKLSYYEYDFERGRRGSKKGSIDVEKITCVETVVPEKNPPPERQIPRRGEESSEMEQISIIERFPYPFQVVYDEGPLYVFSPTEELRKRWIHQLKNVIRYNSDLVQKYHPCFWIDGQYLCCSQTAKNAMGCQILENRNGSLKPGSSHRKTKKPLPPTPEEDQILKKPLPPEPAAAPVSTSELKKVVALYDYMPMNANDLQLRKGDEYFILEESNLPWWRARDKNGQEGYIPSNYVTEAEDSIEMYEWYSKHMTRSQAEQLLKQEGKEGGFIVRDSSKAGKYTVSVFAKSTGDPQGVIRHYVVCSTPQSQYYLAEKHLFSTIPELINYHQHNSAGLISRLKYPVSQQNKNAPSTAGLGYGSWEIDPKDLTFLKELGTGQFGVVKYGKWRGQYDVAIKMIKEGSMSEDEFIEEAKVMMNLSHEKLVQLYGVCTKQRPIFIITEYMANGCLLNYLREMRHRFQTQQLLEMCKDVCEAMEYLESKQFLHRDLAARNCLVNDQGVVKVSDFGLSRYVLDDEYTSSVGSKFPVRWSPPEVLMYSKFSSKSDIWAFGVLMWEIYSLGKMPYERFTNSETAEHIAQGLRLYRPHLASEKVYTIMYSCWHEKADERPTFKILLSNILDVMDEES

[31] = biological target: G protein-coupled receptor kinase 5 (Homo sapiens, UniProt P34947); experiment: Navigating the Kinome. Panel member name: GPRK5
Chain of G protein-coupled receptor kinase 5 (P34947 whole entry): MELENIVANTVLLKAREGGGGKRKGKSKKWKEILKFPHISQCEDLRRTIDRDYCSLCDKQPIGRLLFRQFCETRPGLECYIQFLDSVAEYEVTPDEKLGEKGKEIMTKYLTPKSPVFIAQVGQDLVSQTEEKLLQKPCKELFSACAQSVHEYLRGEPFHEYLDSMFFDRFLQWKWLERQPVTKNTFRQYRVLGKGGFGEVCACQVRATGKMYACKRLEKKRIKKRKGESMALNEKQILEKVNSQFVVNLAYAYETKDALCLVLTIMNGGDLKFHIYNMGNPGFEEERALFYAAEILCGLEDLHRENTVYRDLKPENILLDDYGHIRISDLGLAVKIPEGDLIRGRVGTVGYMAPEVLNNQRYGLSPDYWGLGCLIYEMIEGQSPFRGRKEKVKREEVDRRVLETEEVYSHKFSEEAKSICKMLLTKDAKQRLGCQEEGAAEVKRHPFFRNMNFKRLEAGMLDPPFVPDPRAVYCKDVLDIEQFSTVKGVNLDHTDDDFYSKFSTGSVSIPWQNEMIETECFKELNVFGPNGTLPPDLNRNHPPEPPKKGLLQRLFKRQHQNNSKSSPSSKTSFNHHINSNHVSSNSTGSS

[32] = biological target: 5'-AMP-activated protein kinase catalytic subunit alpha-1 (Homo sapiens, UniProt Q13131)
Chain of 5'-AMP-activated protein kinase catalytic subunit alpha-1 (Q13131 whole entry): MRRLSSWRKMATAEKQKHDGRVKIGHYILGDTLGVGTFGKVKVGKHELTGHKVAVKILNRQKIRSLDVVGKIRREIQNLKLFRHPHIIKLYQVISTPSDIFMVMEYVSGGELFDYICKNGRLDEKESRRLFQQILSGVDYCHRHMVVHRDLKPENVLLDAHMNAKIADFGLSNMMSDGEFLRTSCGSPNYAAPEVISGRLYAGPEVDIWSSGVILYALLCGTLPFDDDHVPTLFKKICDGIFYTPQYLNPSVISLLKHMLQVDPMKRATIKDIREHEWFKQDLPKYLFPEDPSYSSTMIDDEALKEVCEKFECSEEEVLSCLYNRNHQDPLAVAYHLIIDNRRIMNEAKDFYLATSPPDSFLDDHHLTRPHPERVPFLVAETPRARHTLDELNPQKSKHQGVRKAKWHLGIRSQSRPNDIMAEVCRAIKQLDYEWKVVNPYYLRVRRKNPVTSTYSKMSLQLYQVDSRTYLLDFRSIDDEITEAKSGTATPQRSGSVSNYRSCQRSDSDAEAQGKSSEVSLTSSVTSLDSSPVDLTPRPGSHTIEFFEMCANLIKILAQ

| SMILES | Ki [1] | Ki [2] | Ki [3] | Ki [4] | Ki [5] | Ki [6] | Ki [7] | Ki [8] | Ki [9] | Ki [10] | Ki [11] | Ki [12] | Ki [13] | Ki [14] | Ki [15] | Ki (Activated CDC42 kinase 1) | Ki [16] | Ki [17] | Ki [18] | Ki [19] | further results |
| --- | --- | --- | --- | --- | --- | --- | --- | --- | --- | --- | --- | --- | --- | --- | --- | --- | --- | --- | --- | --- | --- |
| COc1cccc(C(C)NC(=O)c2cnc(-c3ccncc3)nc2)c1 (stereo not drawn) | > 6.31 µM (inactive) | > 2.51 µM (inactive) | > 2 µM (inactive) | > 3.16 µM (inactive) | > 2.51 µM (inactive) | > 3.16 µM (inactive) | 2.51 µM (active) | > 3.98 µM (inactive) | > 6.31 µM (inactive) | > 3.16 µM (inactive) | 1.26 µM (active) | 1.58 µM (active) | 0.398 µM (active) | > 3.98 µM (inactive) | > 6.31 µM (inactive) | > 3.98 µM (inactive) | > 6.31 µM (inactive) | > 3.16 µM (inactive) | > 5.01 µM (inactive) | > 3.98 µM (inactive) | Ki [20]: > 3.98 µM (inactive); Ki [21]: > 3.98 µM (inactive); Ki [22]: > 2.51 µM (inactive); Ki [23]: 0.126 µM (active); Ki [24]: > 2.51 µM (inactive); Ki [25]: > 3.16 µM (inactive); Ki [26]: > 3.98 µM (inactive); Ki (Aurora kinase A): > 1.58 µM (inactive); Ki [27]: > 2.51 µM (inactive); Ki [28]: > 2.51 µM (inactive); Ki [29]: > 7.94 µM (inactive); Ki [30]: > 6.31 µM (inactive); Ki [31]: > 3.98 µM (inactive); Ki [32]: > 3.16 µM (inactive) |
| CCCOc1cccc(C(C)NC(=O)c2ccc(-c3ccncc3F)cc2)c1 (stereo not drawn) | > 6.31 µM (inactive) | > 2.51 µM (inactive) | > 2 µM (inactive) | > 3.16 µM (inactive) | > 2.51 µM (inactive) | > 3.16 µM (inactive) | 3.16 µM (active) | > 3.98 µM (inactive) | > 6.31 µM (inactive) | > 3.16 µM (inactive) | 0.501 µM (active) | 2.51 µM (active) | > 3.98 µM (inactive) | > 3.98 µM (inactive) | > 6.31 µM (inactive) | > 3.98 µM (inactive) | > 6.31 µM (inactive) | > 3.16 µM (inactive) | > 5.01 µM (inactive) | > 3.98 µM (inactive) | Ki [20]: > 3.98 µM (inactive); Ki [21]: > 3.98 µM (inactive); Ki [22]: > 2.51 µM (inactive); Ki [23]: 1 µM (active); Ki [24]: 0.1 µM (active); Ki [25]: > 3.16 µM (inactive); Ki [26]: > 3.98 µM (inactive); Ki (Aurora kinase A): > 1.58 µM (inactive); Ki [27]: > 2.51 µM (inactive); Ki [28]: > 2.51 µM (inactive); Ki [29]: > 7.94 µM (inactive); Ki [30]: > 6.31 µM (inactive); Ki [31]: > 3.98 µM (inactive); Ki [32]: > 3.16 µM (inactive) |
